Reference: patent US11413278B2, “Compounds and methods for promoting stress resistance” (priority 2015, dated 2022)
Read-outs that look alike come from different tables or passages of the source.

How the values were obtained:
WI-38 cells [1] = assay: Propidium iodide (PI) cell-death imaging upon H2O2 stress; assay type: cell-based, human; conditions: for Assay 7: H2O2-resistant, at 10 uM, validated by propidium iodide (PI) cell-death imaging: w/H2O2, 3 hrs/4 hrs/5 hrs, YES/NO; for cytotoxicity at 10 µM: Homo sapiens, WI-38
[2] = test system: human dermal fibroblast (HDF) primary cells; assay: H2O2-resistance in primary human dermal fibroblasts; assay type: cell-based; conditions: for fold induction at 10 µM: Homo sapiens; for Assay 6: H2O2-resistant, at 10 uM, human dermal fibroblast (HDF) primary cells: YES/NO
LC3A/B puncta = assay: Autophagy induction analysis (LC3A/B puncta immuno-staining); assay type: cell-based, human
Method in brief: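 WI-38 cells were treated with compounds for 24 hrs, then immunostained for LC3A/B (overnight, 4° C) with DAPI counterstain and imaged by high-content microscopy. Experiment 1 used total puncta intensity. Experiment 2 used LAMP2-colocalized (lysosomal) puncta. Intensity was normalized to nuclei count.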

[3] = test system: phosphorylated γH2A.X and TP53BP1; assay: DNA damage marker analysis (immuno-staining); conditions: for activity at 10 µM: Homo sapiens, WI-38, 24 h; for P = Potential DNA-damaging / R = Potential DNA damaging: human, 24 h
Method in brief: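 WI-38 cells were cultured 24 h, then treated with compounds for 24 h; H2O2 (700 μM, 3 h) and doxorubicin (300 nM, 24 h) served as DNA-damage controls. After fixation, cells were immunostained for phospho-γH2A.X (Ser-139) and phospho-TP53BP1 (Ser-1778), counterstained with DAPI, and imaged by automated high-content microscopy.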

WI-38 cells [4] = assay: Long-term effects on cell viability (5 days, ATP; morphology, PI imaging); assay type: cell-based; conditions: 10 μM; for Luminescence signal for ATP measurement, day-1 Average / Luminescence signal for ATP measurement, day-2 Average / Luminescence signal for ATP measurement, day-3 Average / Luminescence signal for ATP measurement, day-4 Average / Luminescence signal for ATP measurement, day-5 Average / viability at 10 µM: Batch 1; for Luminescence signal for ATP measurement, day-1 Average / Luminescence signal for ATP measurement, day-2 Average / Luminescence signal for ATP measurement, day-3 Average / Luminescence signal for ATP measurement, day-4 Average / Luminescence signal for ATP measurement, day-5 Average: n = 6, day-0 luminescence = 320956 ± 24708; for viability at 10 µM: Homo sapiens, WI-38, 120 h, DMSO ctrl = 100.0%, read-out: ATP luminescence by day-5 normalized; for Luminescence signal for ATP measurement, day-5 Average / viability at 10 µM: day-5; for O = Potential toxicity / Q = Potential toxicity: human, 5 days;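 on Luminescence signal for ATP measurement, day-2 Average: compounds at 10 µM with ATP read daily over 5 days of treatment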;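 on Luminescence signal for ATP measurement, day-3 Average: compounds at 10 µM with ATP read daily over 5 days of treatment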;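 on Luminescence signal for ATP measurement, day-4 Average: compounds at 10 µM with ATP read daily over 5 days of treatment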;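 on Luminescence signal for ATP measurement, day-5 Average: compounds at 10 µM with ATP read daily over 5 days of treatment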
[5] = Summary score for characterization of 38 core set hits; conditions: for D = Triple resistant: 2-point score, multiplex resistance (cadmium, MMS, H2O2); for S = Sum of Negative scores: human; for C = H2O2- & Cd-resistant: score, resistance to both H2O2 and cadmium
Method in brief: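 Composite score. 2 pts each: multiplex stress resistance, FOXO3/NRF2 activation, mTOR down-regulation. Worm lifespan (4–6 independent trials): 0 = no obvious effect, 1 = extension in 2 trials, 2 = extension in >2 trials. −1 for DNA damage and/or cytotoxicity in cultured human cells.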

[6] = H2O2 3 hrs, 10 uM, n = 6, negative control 5.44% ± 0.79%, read-out: Percentage of propidium iodide-positive dead cells (under H2O2 stress treatment), 3 hrs
[7] = pre-treatment at 10 uM, 3.5 hours of H2O2, DMSO control 27.4% ± 6.5%, */**/*** = reduced by one/two/three standard deviations, read-out: Percentage of propidium iodide-positive dead cells (under H2O2 stress treatment), at 10 uM
[8] = Experiment 1, HDF cells, read-out: Experiment 1, HDF cells (under H2O2 stress treatment), at 10 uM (fold change)
[9] = Experiment 2, HDF cells, read-out: Experiment 2, HDF cells (under H2O2 stress treatment), at 10 uM (fold change)
[10] = read-out: Experiment 1, H2A.X-P DNA damage foci staining (no H2O2 stress treatment), at 10 uM
[11] = read-out: Experiment 2, H2A.X-P DNA damage foci staining (no H2O2 stress treatment), at 10 uM
[12] = read-out: Experiment 2, H2A.X-P DNA damage foci staining (under H2O2 stress treatment), at 10 uM
[13] = read-out: Experiment 2, TP53BP1-P DNA damage foci staining (no H2O2 stress treatment), at 10 uM
[14] = read-out: Experiment 2, TP53BP1-P DNA damage foci staining (under H2O2 stress treatment), at 10 uM

| SMILES | Assay 7: H2O2-resistant, at 10 uM, validated by propidium iodide (PI) cell-death imaging (WI-38 cells [1]; 10 uM) | cytotoxicity at 10 µM (WI-38 cells [1]; [6]) [%] | cytotoxicity at 10 µM (WI-38 cells [1]; [7]) [%] | fold induction at 10 µM [2, 8] | fold induction at 10 µM [2, 9] | H = Potential Autophagy Induction (LC3A/B puncta; score) | H = Potential Autophagy Induction (LC3A/B puncta; summary score) | activity at 10 µM [3, 10] [%] | activity at 10 µM [3, 11] [%] | activity at 10 µM [3, 12] [%] | activity at 10 µM [3, 13] [%] | activity at 10 µM [3, 14] [%] | P = Potential DNA-damaging [3] | R = Potential DNA damaging [3] | Luminescence signal for ATP measurement, day-1 Average (WI-38 cells [4]) | Luminescence signal for ATP measurement, day-2 Average (WI-38 cells [4]) | Luminescence signal for ATP measurement, day-3 Average (WI-38 cells [4]) | Luminescence signal for ATP measurement, day-4 Average (WI-38 cells [4]) | Luminescence signal for ATP measurement, day-5 Average (WI-38 cells [4]) | viability at 10 µM (WI-38 cells [4]) [%] | also measured |
| --- | --- | --- | --- | --- | --- | --- | --- | --- | --- | --- | --- | --- | --- | --- | --- | --- | --- | --- | --- | --- | --- |
| Cc1cc(C)c(C(=O)/C=C/c2ccccc2F)c(O)n1 [O18] | YES | 3.66 | 4.5 | 72.5 | 1.27 | 0 | 0 | 364 | 143 | 137 | 183 | 450 | 0 | 0 | 453443 | 639628 | 693776 | 825623 | 760275 | 74 | cytotoxicity at 10 µM (WI-38 cells [1]; H2O2 4 hrs, 10 uM, n = 6, negative control 16.81% ± 1.42%, read-out: Percentage of propidium iodide-positive dead cells (under H2O2 stress treatment), 4 hrs): 3.06%; cytotoxicity at 10 µM (WI-38 cells [1]; H2O2 5 hrs, 10 uM, n = 6, negative control 22.50% ± 1.53%, read-out: Percentage of propidium iodide-positive dead cells (under H2O2 stress treatment), 5 hrs): 4.16%; O = Potential toxicity (WI-38 cells [4]): 0; Q = Potential toxicity (WI-38 cells [4]): 0; D = Triple resistant [5]: 0; S = Sum of Negative scores [5]: 0; C = H2O2- & Cd-resistant [5]: 0 |
| COC(=O)CCc1sc2c(c1[N+](=O)[O-])NC(=O)CCC2 [O20] | YES | 3.28 | 9.4 | 1.08 | 63.9 | 0 | 0 | 115 | 130 | 178 | 108 | 544 | 0 | 0 | 544305 | 770055 | 888893 | 997113 | 926888 | 90.3 | Assay 6: H2O2-resistant, at 10 uM, human dermal fibroblast (HDF) primary cells [2]: YES; O = Potential toxicity (WI-38 cells [4]): 1; Q = Potential toxicity (WI-38 cells [4]): 0; D = Triple resistant [5]: 0; S = Sum of Negative scores [5]: 0; C = H2O2- & Cd-resistant [5]: 1 |
| COc1ccc(/C=C2\SC(=N)N(c3nccs3)C2=O)cc1 [O21] | YES | 2.05 | 7.8 | 140 | 25.5 | 0 | 0 | 161 | 216 | 127 | 196 | 620 | 1 | 1 | 460366 | 542268 | 557236 | 677875 | 550651 | 53.6 | Assay 6: H2O2-resistant, at 10 uM, human dermal fibroblast (HDF) primary cells [2]: YES; O = Potential toxicity (WI-38 cells [4]): 1; Q = Potential toxicity (WI-38 cells [4]): 1; D = Triple resistant [5]: 0; S = Sum of Negative scores [5]: 2; C = H2O2- & Cd-resistant [5]: 0 |
